Measured values reported in patent US10092002B2, “Herbicidal composition comprising nicosulfuron or its salt and S -metolachlor or its salt” (ISHIHARA SANGYO KAISHA, LTD., priority 2011, dated 2018).

How the values were obtained:
Format in all cases: in vivo
[1] = system: wild oat (Avena fatua L.); experiment: Test Example 3: soil treatment, wild oat, visual growth inhibition rate; settings: soil treatment the day after sowing, 14th day after treatment
Excerpt: When the herbicidal activity in a case where two active ingredients are combined, is larger than the simple sum of the respective herbicidal activities of the two active ingredients (the expected activity), it is called a synergistic effect. The activity expected by the combination of two active ingredients can be calculated as follows (Colby S. R., “Weed”, vol. 15, p. 20-22, 1967). […] In a case where three active ingredients are combined, the activity can be similarly calculated as follows. […] On the 22nd day after treatment, the state of growth of the common cocklebur was visually observed to determine the growth inhibition rate in accordance with the following evaluation standard. The growth inhibition rate (%) (measured value) and the growth inhibition rate (%) (calculated value) calculated by the Colby's formula are shown in Table 1. […] On the 14th day after treatment, the state of growth of the wild oat was visually observed to determine the growth inhibition rate.

[2] = system: Japanese millet (Echinochloa utilis Ohwi et Yabuno); experiment: Test Example 2: soil treatment, Japanese millet, visual growth inhibition rate; settings: soil treatment the day after sowing, 27th day after treatment
Excerpt: When the herbicidal activity in a case where two active ingredients are combined, is larger than the simple sum of the respective herbicidal activities of the two active ingredients (the expected activity), it is called a synergistic effect. The activity expected by the combination of two active ingredients can be calculated as follows (Colby S. R., “Weed”, vol. 15, p. 20-22, 1967). E1=α+β−(α×β÷100) On the 22nd day after treatment, the state of growth of the common cocklebur was visually observed to determine the growth inhibition rate in accordance with the following evaluation standard. The growth inhibition rate (%) (measured value) and the growth inhibition rate (%) (calculated value) calculated by the Colby's formula are shown in Table 1. […] Upland field soil was put into a 1/1,000,000 ha pot, and seeds of Japanese millet (Echinochloa utilis Ohwi et Yabuno) were sown. […] On the 27th day after treatment, the state of growth of the Japanese millet was visually observed to determine the growth inhibition rate.

[3] = system: green kyllinga (Kyllinga brevifolia Rottb. var. leiolepis) having lowered sensitivity to herbicides; experiment: Test Example 6: foliar treatment of green kyllinga having lowered sensitivity to herbicides, visual growth inhibition rate; settings: foliar treatment at height 5 to 7 cm, 21st day after treatment
Excerpt: When the herbicidal activity in a case where two active ingredients are combined, is larger than the simple sum of the respective herbicidal activities of the two active ingredients (the expected activity), it is called a synergistic effect. The activity expected by the combination of two active ingredients can be calculated as follows (Colby S. […] E1=α+β-(α×β÷100) On the 22nd day after treatment, the state of growth of the common cocklebur was visually observed to determine the growth inhibition rate in accordance with the following evaluation standard. The growth inhibition rate (%) (measured value) and the growth inhibition rate (%) (calculated value) calculated by the Colby's formula are shown in Table 1. […] Upland field soil was put into a 1/1,000,000 ha pot, and rhizomes of green […] brevifolia Rottb. var. leiolepis) having lowered sensitivity to herbicides were planted. When the height of green […] reached 5 to 7 cm, predetermined amounts of […] Dual Gold (tradename) were diluted with water (corresponding to 300 Uha) and applied for foliar treatment by a small sprayer. On the 21st day after treatment, the state of growth of the green […] visually observed to determine the growth inhibition rate.

[4] = system: common cocklebur (Xanthium strumarium L.); experiment: Test Example 1: foliar treatment of common cocklebur in pots, visual growth inhibition rate; settings: foliar treatment at 4.3 to 4.8-leaf stage, 22nd day after treatment
Excerpt: When the herbicidal activity in a case where two active ingredients are combined, is larger than the simple sum of the respective herbicidal activities of the two active ingredients (the expected activity), it is called a synergistic effect. The activity expected by the combination of two active ingredients can be calculated as follows (Colby S. R., “Weed”, vol. 15, p. 20-22, 1967). E1=α+β-(α×β÷100) In a case where three active ingredients are combined, the activity can be similarly calculated as follows. […] Upland field soil was put into a 1/1,000,000 ha pot, and seeds of common cocklebur (Xanthium strumarium L.) were sown. […] Dual Gold, manufactured by Syngenta Crop Protection AG), SC agent containing terbuthylazine as an active ingredient (tradename: Click, manufactured by BASF), SC agent containing mesotrione as an active ingredient (tradename: Callisto, manufactured by Syngenta Crop Protection AG) and WG agent containing prosulfuron as an active ingredient (tradename: Peak, manufactured by Syngenta Crop Protection AG) were diluted with water in an amount corresponding to 1,000 Uha, and applied for foliar treatment by a small sprayer. On the 22nd day after treatment, the state of growth of the common cocklebur was visually observed to determine the growth inhibition rate in accordance with the following evaluation standard. The growth inhibition rate (%) (measured value) and the growth inhibition rate (%) (calculated value) calculated by the Colby's formula are shown in Table 1.

[5] = system: spotted knotweed (Polygonum lapathifolium L.); experiment: Test Example 7: soil treatment, residual activity, spotted knotweed sown 14 days after treatment; settings: seeds sown on the 14th day after treatment, 21st day after sowing
Excerpt: (§1) When the herbicidal activity in a case where two active ingredients are combined, is larger than the simple sum of the respective herbicidal activities of the two active ingredients (the expected activity), it is called a synergistic effect. The activity expected by the combination of two active ingredients can be calculated as follows (Colby S. R., “Weed”, vol. 15, p. 20-22, 1967). E1=α+β-(α×β÷100) On the 22nd day after treatment, the state of growth of the common cocklebur was visually observed to determine the growth inhibition rate in accordance with the following evaluation standard. The growth inhibition rate (%) (measured value) and the growth inhibition rate (%) (calculated value) calculated by the Colby's formula are shown in Table 1. […] Upland field soil was put into a 1/500,000 ha pot, and on the next day, predetermined amounts of […] Dual Gold (tradename) were diluted with water (corresponding to 300 L/ha) and applied for soil treatment by a small sprayer. On the 14th day after treatment, seeds of Japanese bristlegrass (Setaria faberi Herrm) and spotted knotweed, (Polygonum lapathifolium L.) were sown. On the 21st day after sowing, the state of growth of the Japanese bristlegrass and the spotted knotweed was visually observed to determined the growth inhibition rate.

[6] = system: Japanese bristlegrass (Setaria faberi Herrm); experiment: Test Example 7: soil treatment, residual activity, Japanese bristlegrass sown 14 days after treatment; settings: seeds sown on the 14th day after treatment, 21st day after sowing
Excerpt: as §1

Compound	inhibition at 10 g/ha ([1]; Avena fatua, dose 10 g/ha, read-out: Growth inhibition rate (%) of wild oat, Measured value) [%]	inhibition at 100 g/ha ([1]; Avena fatua, dose 100 g/ha, read-out: Growth inhibition rate (%) of wild oat, Measured value) [%]	inhibition at 15 g/ha ([2]; dose 15 g/ha, read-out: Growth inhibition rate (%) of Japanese millet, Measured value) [%]	inhibition at 30 g/ha ([3]; Cyperus brevifolius, dose 30 g/ha, read-out: Growth inhibition rate (%) of green kyllinga, Measured value) [%]	inhibition at 100 g/ha ([3]; Cyperus brevifolius, dose 100 g/ha, read-out: Growth inhibition rate (%) of green kyllinga, Measured value) [%]	inhibition at 30 g/ha ([4]; Xanthium strumarium, dose 30 g/ha, read-out: Growth inhibition rate (%) of common cocklebur, Measured value) [%]	inhibition at 30 g/ha ([5]; Persicaria lapathifolia, dose 30 g/ha, read-out: Growth inhibition rate (%) of spotted knotweed, Measured value) [%]	inhibition at 100 g/ha ([6]; Setaria faberi, dose 100 g/ha, read-out: Growth inhibition rate (%) of Japanese bristlegrass, Measured value) [%]	Growth inhibition rate (%) of wild oat, Measured value ([1]; dose 250 g/ha) [%]	Growth inhibition rate (%) of wild oat, Measured value ([1]; dose 2000 g/ha) [%]	Growth inhibition rate (%) of Japanese millet, Measured value ([2]; dose 500 g/ha) [%]	Growth inhibition rate (%) of green kyllinga, Measured value ([3]; dose 500 g/ha) [%]	Growth inhibition rate (%) of green kyllinga, Measured value ([3]; dose 1000 g/ha) [%]	Growth inhibition rate (%) of common cocklebur, Measured value ([4]; dose 1000 g/ha) [%]	Growth inhibition rate (%) of spotted knotweed, Measured value ([5]; dose 1000 g/ha) [%]	Growth inhibition rate (%) of Japanese bristlegrass, Measured value ([6]; dose 250 g/ha) [%]
COc1cc(OC)nc(NC(=O)NS(=O)(=O)c2ncccc2C(=O)N(C)C)n1 [Nicosulfuron, 2-(4,6-dimethoxypyrimidin-2-ylcarbamoylsulfamoyl)-N,N-dimethylnicotinamide]	10	40	5	20	40	0	75	33	–	–	–	–	–	–	–	–
a mixture of (aRS,1S)-2-chloro-6′-ethyl-N-(2-methoxy-1-methylethyl)aceto-o-toluidide (80 to 100%) and (aRS,1R)-2-chloro-6′-ethyl-N-(2-methoxy-1-methylethyl)aceto-o-toluidide (20 to 0%) [S-metolachlor]	–	–	–	–	–	–	–	–	15	60	80	15	45	0	0	10
